The target in one data set is T1, human TLR7 (Homo sapiens, UniProt Q9NYK1).
T1 sequence (Q9NYK1 27-1049): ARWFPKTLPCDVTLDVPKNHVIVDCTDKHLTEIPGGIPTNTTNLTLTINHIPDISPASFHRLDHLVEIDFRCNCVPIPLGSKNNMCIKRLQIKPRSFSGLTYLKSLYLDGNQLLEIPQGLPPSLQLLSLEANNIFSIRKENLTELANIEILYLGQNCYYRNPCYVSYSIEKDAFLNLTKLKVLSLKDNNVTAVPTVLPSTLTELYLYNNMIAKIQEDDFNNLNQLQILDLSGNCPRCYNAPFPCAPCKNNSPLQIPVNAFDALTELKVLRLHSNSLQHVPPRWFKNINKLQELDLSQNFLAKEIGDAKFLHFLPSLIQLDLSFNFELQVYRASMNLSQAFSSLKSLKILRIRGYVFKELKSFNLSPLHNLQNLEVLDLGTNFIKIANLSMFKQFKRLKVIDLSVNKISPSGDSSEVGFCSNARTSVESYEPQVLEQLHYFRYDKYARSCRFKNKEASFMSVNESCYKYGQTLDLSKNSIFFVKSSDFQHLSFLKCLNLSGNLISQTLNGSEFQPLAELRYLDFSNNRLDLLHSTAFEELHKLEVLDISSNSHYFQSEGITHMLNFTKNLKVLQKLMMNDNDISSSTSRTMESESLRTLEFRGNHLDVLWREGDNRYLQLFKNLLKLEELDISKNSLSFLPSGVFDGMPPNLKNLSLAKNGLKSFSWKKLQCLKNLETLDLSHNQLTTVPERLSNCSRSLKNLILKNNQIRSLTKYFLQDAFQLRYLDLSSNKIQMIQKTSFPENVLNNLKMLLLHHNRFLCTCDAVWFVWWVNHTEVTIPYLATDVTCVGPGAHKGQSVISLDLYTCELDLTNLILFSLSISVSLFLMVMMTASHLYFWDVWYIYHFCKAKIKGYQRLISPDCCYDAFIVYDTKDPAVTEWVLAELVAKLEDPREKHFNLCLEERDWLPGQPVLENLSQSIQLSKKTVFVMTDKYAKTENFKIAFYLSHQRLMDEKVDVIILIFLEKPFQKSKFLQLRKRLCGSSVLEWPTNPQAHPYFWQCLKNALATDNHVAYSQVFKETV
The experiment in a line: activation of human TLR7 (LEC). Type of data set: cell-based.

A further data set has as its target T2, monkey TLR7 (Macaca fascicularis, UniProt B3Y652).
T2 sequence (B3Y652 1-1049): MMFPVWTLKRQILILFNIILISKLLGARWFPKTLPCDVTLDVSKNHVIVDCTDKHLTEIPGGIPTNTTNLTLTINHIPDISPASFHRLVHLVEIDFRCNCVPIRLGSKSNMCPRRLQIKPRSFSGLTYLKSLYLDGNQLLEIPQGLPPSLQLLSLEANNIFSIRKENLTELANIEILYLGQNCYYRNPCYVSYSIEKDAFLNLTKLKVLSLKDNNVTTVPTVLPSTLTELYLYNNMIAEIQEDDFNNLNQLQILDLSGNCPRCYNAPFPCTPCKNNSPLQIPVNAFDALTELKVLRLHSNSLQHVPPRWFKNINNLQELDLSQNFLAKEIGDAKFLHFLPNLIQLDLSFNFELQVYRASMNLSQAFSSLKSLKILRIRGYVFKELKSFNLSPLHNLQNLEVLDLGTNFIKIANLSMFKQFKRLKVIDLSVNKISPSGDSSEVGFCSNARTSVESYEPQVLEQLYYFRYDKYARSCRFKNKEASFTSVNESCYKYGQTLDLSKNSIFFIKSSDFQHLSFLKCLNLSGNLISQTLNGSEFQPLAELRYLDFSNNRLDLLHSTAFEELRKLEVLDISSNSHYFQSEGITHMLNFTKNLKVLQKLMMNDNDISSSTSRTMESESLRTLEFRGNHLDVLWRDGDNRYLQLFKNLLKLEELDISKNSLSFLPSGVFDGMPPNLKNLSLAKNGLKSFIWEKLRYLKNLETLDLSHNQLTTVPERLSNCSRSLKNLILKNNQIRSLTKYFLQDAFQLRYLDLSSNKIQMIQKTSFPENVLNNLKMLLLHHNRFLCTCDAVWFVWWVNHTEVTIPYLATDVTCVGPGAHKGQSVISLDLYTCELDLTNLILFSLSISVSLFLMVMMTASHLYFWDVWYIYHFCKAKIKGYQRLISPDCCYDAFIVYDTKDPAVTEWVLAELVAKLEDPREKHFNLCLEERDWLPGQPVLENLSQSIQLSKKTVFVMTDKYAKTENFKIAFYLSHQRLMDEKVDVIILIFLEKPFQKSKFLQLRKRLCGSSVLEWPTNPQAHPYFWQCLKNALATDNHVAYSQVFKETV
The data set is described as follows: activation of monkey TLR7 (LEC). The data set is classed as cell-based. The text has this: (§1) Exposure increased more than dose-proportionally at low doses. Variability in exposure was high. • In vitro plasma protein binding was between 79.6% and 94.2% in animals and humans. Volume of distribution after intravenous dosing was high. […] Main metabolic pathways were oxygenation, hydrogenation, dehydrogenation, dealkylation, acetylation, glucuronidation, and/or glutathione conjugation. • In rats, >80% of drug-related material was found in feces, 11% to 20% in bile, and <4% in urine. […] There were no effects on embryofetal development up to 1 mg/kg/dose in rats and 30 mg/kg/dose in rabbits.

The subject of data set [1] is interferon-stimulated genes (ISGs) and cytokines in peripheral blood. The experiment in a line: single oral administration in monkeys: tolerability, ISG and cytokine induction. Type of data set: in vivo.
Excerpt: as §1

Data set [2] in a line: pharmacokinetics in monkey. As to conditions: in vivo, po.
Excerpt: as §1

The nature of data set [3]: in vitro permeability and P-glycoprotein substrate. Type of data set: in vitro ADME.
Excerpt: as §1

Another data set has as its target P-glycoprotein (Homo sapiens, UniProt P08183). The data set is described as follows: in vitro permeability and P-glycoprotein substrate. The data set is classed as in vitro ADME.
Excerpt: as §1

The nature of data set [4]: off-target liabilities in vitro. As to conditions: read-out: lowest IC50 for off-target liabilities.
Excerpt: as §1

A short description of the next data set: genotoxic potential.
Excerpt: as §1

Data set [5] can be described thus: 6-month toxicity study in rats. As to conditions: rat, in vivo.
Excerpt: as §1

The nature of a further data set: BCS classification. Particulars: high solubility, low permeability. Type of data set: physicochemical. Here is the method: AUC48h was approximately 17% (95% Cl: 65.89-105.71%) lower in fed condition compared with fasted. These differences are aligned with BCS Class 3 (high solubility, low permeability) compound properties.

Chain of P-glycoprotein (P08183 whole entry): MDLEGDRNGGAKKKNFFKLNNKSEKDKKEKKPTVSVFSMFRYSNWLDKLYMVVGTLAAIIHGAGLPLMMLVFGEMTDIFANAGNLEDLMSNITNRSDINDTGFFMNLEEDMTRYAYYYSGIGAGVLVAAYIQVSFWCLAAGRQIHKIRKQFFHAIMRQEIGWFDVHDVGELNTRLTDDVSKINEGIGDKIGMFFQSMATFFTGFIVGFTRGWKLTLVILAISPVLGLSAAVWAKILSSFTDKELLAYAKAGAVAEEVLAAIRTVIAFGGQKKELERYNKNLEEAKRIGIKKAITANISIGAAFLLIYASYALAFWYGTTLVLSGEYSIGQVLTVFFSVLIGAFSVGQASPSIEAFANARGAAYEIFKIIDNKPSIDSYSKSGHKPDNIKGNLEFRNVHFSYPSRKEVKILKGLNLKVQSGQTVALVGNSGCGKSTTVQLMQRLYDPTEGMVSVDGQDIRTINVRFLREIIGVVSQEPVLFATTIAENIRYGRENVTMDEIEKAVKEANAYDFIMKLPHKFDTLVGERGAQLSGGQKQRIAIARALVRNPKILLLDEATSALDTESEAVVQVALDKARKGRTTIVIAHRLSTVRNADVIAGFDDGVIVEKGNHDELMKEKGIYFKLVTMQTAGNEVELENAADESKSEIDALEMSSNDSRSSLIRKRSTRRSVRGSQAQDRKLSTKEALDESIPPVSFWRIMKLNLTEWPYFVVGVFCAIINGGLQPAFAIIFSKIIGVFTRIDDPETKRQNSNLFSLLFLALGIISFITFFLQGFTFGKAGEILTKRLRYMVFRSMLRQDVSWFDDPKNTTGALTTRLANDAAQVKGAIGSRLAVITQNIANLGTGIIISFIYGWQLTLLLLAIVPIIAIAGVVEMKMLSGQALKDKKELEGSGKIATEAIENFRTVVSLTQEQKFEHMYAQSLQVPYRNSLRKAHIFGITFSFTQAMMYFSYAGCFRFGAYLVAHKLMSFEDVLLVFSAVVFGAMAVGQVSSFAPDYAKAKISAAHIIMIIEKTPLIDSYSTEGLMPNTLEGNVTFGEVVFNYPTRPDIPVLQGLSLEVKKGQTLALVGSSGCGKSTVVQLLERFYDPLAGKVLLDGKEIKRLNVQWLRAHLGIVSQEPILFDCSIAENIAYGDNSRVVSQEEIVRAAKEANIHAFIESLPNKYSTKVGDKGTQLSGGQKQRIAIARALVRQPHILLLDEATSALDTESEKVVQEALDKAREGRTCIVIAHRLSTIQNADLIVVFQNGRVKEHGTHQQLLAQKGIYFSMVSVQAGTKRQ

The term bioavailability denotes dose-corrected exposure relative to a reference, in per cent. One may read the IC50 as the concentration that gives 50% inhibition. The term Cmax denotes the peak of the concentration-time curve. Broadly, the NOAEL is the highest dose or exposure tested at which no adverse effect was seen. As to `CCCCOc1nc(N)c2[nH]cc(Cc3ccc(CN4CCCC4)cc3)c2n1` [Compound 4], on human TLR7, the “lowest effective concentration (LEC) for activation of human TLR7” value was 70 nM. For the same compound, the “lowest effective concentration (LEC) for activation of monkey TLR7” value on monkey TLR7 is reported as under 119 nM. Further, the “cytokine induction (IFN-α, IP-10, IL-1 RA, MCP-1)” value in [1] (0.6 mg/kg) is given as “induction of 4 of the 14 cytokines tested”. Moreover, the cytokine induction entry in data set [1] (0.1 and 0.15 mg/kg) is listed as “only increases in IP-10 were detected”. Besides, in [1] (each dose, 12-24 hours postdose), the “ISG15, MX1 and OAS1 in peripheral blood” value is on record as “increase in all 3 major interferon-stimulated genes”. Besides, the “dose for which the LEC was observed (minimal target engagement)” value in data set [1] (monkey, in vivo) is 0.1 mg/kg. For the same compound, the tolerability entry in [1] (single oral 0.05, 0.1, 0.15 and 0.6 mg/kg) is given as “well tolerated”. The compound also gave a bioavailability in data set [2] of 1.5%. Moreover, the in vitro permeability entry in data set [3] is listed as “low”. The P-glycoprotein substrate result on P-glycoprotein was “P-glycoprotein substrate”. Further, in [4], the IC50 is at least 1.97 µM. Also, the genotoxic potential result in “genotoxic potential” is reported as “free of genotoxic potential”. Moreover, the AUC(0-t) in data set [5] (1.0 mg/kg qw or q2w, read-out: AUC24h at NOAEL) is 16.6 to 27.3 ng·h/mL. Besides, the Cmax in [5] (1.0 mg/kg qw or q2w, read-out: Cmax at NOAEL) fell in the range of 3.32 to 7.88 ng/mL. For the same compound, the NOAEL at 6 months in data set [5] (qw or q2w, 6 months) turned out to be 1 mg/kg. Further, the BCS class result in the data set “BCS classification” is reported as “BCS Class 3”.

(Values after patent US12263172B2, “Toll-like receptor agonists for use in the treatment of hepatitis b” (priority 2019, dated 2025).)
